This passage reports IC50 results from US9624188B2, “IDO inhibitors” (BRISTOL-MYERS SQUIBB COMPANY, priority 2013, dated 2017).

The target of the assay is Human IDO1 (Homo sapiens (Human), UniProt P14902). Put plainly: IDO Kynurenine Assay with Human IDO1/HEK293 Cells. The assay is classed as cell-based. The note with it: 20 hours incubation, kynurenine detected with Ehrlich reagent, absorbance at 490 nm, read-out: HEK Human IDO-1 IC50. Here is the method: IDO Kynurenine Assay with Human IDO1/HEK293 Cells
Human IDO1, sequence (P14902 whole entry): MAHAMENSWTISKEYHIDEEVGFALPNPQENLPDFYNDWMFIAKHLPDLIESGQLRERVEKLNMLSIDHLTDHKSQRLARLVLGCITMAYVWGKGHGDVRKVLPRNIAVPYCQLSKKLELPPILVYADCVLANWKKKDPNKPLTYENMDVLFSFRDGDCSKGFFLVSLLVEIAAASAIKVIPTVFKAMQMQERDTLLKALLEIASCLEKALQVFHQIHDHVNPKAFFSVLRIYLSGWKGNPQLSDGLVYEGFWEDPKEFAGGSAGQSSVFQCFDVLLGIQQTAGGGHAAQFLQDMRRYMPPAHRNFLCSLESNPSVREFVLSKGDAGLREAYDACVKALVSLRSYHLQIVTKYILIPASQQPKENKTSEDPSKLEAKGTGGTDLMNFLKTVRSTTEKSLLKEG
Human IDO1/HEK293 cells were seeded at 10,000 cells per 50 uL per well with RPMI/phenol red free media contains 10% FBS in a 384-well black wall clear bottom tissue culture plate (Matrix Technologies LLC) 125 nL of certain concentration of compound was then added to each well using ECHO liquid handling systems. The cells were incubated for 20 hours in 37° C. incubator with 5% CO2.
The compound treatments were stopped by adding Trichloroacetic Acid (Sigma-Aldrich) to a final concentration at 0.2%. The cell plate was further incubated at 50° C. for 30 minute. The equal volume supernatant (20 uL) and 0.2% (w/v) Ehrlich reagent (4-dimethylaminobenzaldehyde, Sigma-Aldrich) in glacial acetic acid were mixed in a new clear bottom 384-well plate. This plate was then incubated at room temperature for 30 minute. The absorbance at 490 nm was measured on Envision plate reader.
Compound IC50 values were calculated using the counts of 500 nM of a reference standard treatment as one hundred percent inhibition, and counts of no compound but DMSO treatment as zero percent inhibition.

In general, IC50 refers to the concentration that inhibits the measured activity by half.

In the case of `CC(C)CN(CC(C)C)c1ccc([C@@H](C)CC(=O)O)cc1NC(=O)Nc1cncnc1` [Example 38, (S)-3-(4-(diisobutylamino)-3-(3-(pyrimidin-5-yl)ureido)phenyl)butanoic acid], the IC50 amounted to 0.029 µM. For `CC(C)CN(CC(C)C)c1ccc(C(CC(=O)O)C(F)(F)F)cc1NC(=O)Nc1ccc(F)cc1F` (centres unmarked) [Example 30, 3-(3-(3-(2,4-difluorophenyl)ureido)-4-(diisobutylamino)phenyl)-4,4,4-trifluorobutanoic acid], the IC50 stood at 0.0007 µM. The value for `Cc1ccc(NC(=O)Nc2cc(C(C)CC(=O)O)ccc2N(CC(C)C)C2CCCCC2)cc1` (racemic) [Example 49, 3-(4-(cyclohexyl(isobutyl)amino)-3-(3-(p-tolyl)ureido)phenyl)butanoic acid] was 0.001 µM; that for `Cc1ncc(NC(=O)Nc2cc([C@@H](C)CC(=O)O)ccc2N(CC(C)C)CC(C)C)cn1` [Example 39, (S)-3-(4-(diisobutylamino)-3-(3-(2-methylpyrimidin-5-yl)ureido)phenyl)butanoic acid] was 0.169 µM. Turning to `Cc1ccc(NC(=O)Nc2cc([C@@H](C)CC(=O)O)ccc2N(CC(C)C)CC(C)C)cc1` [Example 43, (S)-3-(4-(diisobutylamino)-3-(3-(p-tolyl)ureido)phenyl)butanoic acid], the IC50 came out at 0.017 µM. For the compound `Cc1cc(NC(=O)Nc2cc([C@@H](C)CC(=O)O)ccc2N(CC(C)C)CC(C)C)no1` [Example 44, (S)-3-(4-(diisobutylamino)-3-(3-(5-methylisoxazol-3-yl)ureido)phenyl)butanoic acid], the IC50 worked out at 0.087 µM. In the case of `Cc1ccc(NC(=O)Nc2cc(C3(CC(=O)O)COC3)ccc2N(CC(C)C)CC(C)C)cc1` [Example 2, 2-(3-(4-(diisobutylamino)-3-(3-(p-tolyl)ureido)phenyl)oxetan-3-yl)acetic acid], the IC50 worked out at 0.205 µM. Turning to `Cc1ncc(NC(=O)Nc2cc([C@H](C)CC(=O)O)ccc2N(CC(C)C)CC(C)C)cn1` [Example 40, (R)-3-(4-(diisobutylamino)-3-(3-(2-methylpyrimidin-5-yl)ureido)phenyl)butanoic acid], the IC50 came to 0.022 µM. As to `CC(C)CN(CC(C)C)c1ccc([C@H](C)CC(=O)O)cc1NC(=O)Nc1cncnc1` [Example 37, (R)-3-(4-(diisobutylamino)-3-(3-(pyrimidin-5-yl)ureido)phenyl)butanoic acid], the IC50 is 0.011 µM. Regarding `CC(C)CN(CC(C)C)c1ccc([C@H](C)CC(=O)O)cc1NC(=O)Cc1ccc(C#N)cc1` [Example 45, (R)-3-(3-(2-(4-cyanophenyl)acetamido)-4-(diisobutylamino)phenyl)butanoic acid], the IC50 came out at 0.005 µM. Regarding `Cc1cc(NC(=O)Nc2cc(C(C)CC(=O)O)ccc2N(CC(C)C)CC(C)C)on1` (racemic) [Example 13, 3-(4-(diisobutylamino)-3-(3-(3-methylisoxazol-5-yl)ureido)phenyl)butanoic acid], the IC50 worked out at 0.003 µM.
